The results in this text go back to US20150031628A1, “METHODS AND FORMULATIONS FOR CONVERTING INTRAVENOUS AND INJECTABLE DRUGS INTO ORAL DOSAGE FORMS” (ZOMANEX, LLC, priority 2007, published 2015).

Data set [1] can be described thus: in vivo. Particulars: female, beagle, dog, plasma, po, 20 mg.
Experimental: (§1) To these ends, pharmacokinetic studies were performed in five naïve, female beagle dogs with each drug dosed in a formulation system using a crossover design, with a one week wash out period between doses. […] Following a 16-hour fast, the animals were fed a small amount (approximately ¼ can) of Hill/s Science Diet A/D and thirty minutes later each animal was orally dosed with one of the formulations of the appropriate test article. Blood samples were drawn 0.5, 1.0, 1.5, 3.0, 4.5, 8.0, and 24 hours after dosing.
The liquid was then dosed to the animal with a syringe. Water was then added to the syringe and the washing was administered to the dog.
After dosing with each formulation, all the blood samples were collected in a sodium heparin anticoagulant tube, processed to plasma and frozen at −80° C. Plasma Paclitaxel concentration at each time point for each of the five dogs was determined by high throughput liquid chromatographic-tandem mass spectrometric quantification at Bioanalytical Systems (McMinnville, Oreg.). […] To quantitate the absorption changes, the area under the curve (AUC0→∞) was calculated for each formulation system and the results are shown in the Table below.
Data set [2] in a line: in vivo. The note with it: female, beagle, dog, plasma, po, 20 mg. This is another data set of the same source.
Experimental: as §1
Solid Preparation—Paclitaxel. Solid Paclitaxel (300 mg), soy sterols (300 mg) and lysolecithin (900 mg) were added to a 30 mL glass tube and chloroform (3.0 ml) was added. After the solids were dissolved with gentle heating in a 60° C. water bath, the solvent was removed under a stream of nitrogen. The mass was then pumped on under vacuum to remove residual solvent. Addition of water (15 mL) softened the solid mass and the mixture was then sonicated in an ice bath for two minutes on 40% power, followed by two minutes sonication on 50% power and then two minutes sonication on 60% power. […]
Absorption Experiment With Solid Formulations. After dosing with each formulation, all the blood samples were processed and analyzed as described for the liquid formulations.

SMILES strings stand for the structures.

`CC(=O)O[C@H]1C(=O)[C@@]2(C)[C@H]([C@H](OC(=O)c3ccccc3)[C@]3(O)C[C@H](OC(=O)[C@H](O)[C@@H](NC(=O)c4ccccc4)c4ccccc4)C(C)=C1C3(C)C)[C@]1(OC(C)=O)CO[C@@H]1C[C@@H]2O` [Unformulated Paclitaxel, Paclitaxel]: the AUC(0-inf) in data set [1] and in data set [2] was 28.9 ± 7.1 ng·h/mL throughout.

As a reminder, the AUC(0-inf) is total exposure, with the tail of the curve extrapolated. A high value points to high exposure.
